In ChEMBL document CHEMBL4673323, “Novel molecular hybrids of indoline spiropyrans and α-lipoic acid as potential photopharmacological agents: Synthesis, structure, photochromic and biological properties” (Bioorg Med Chem Lett, 2021):
pIC50: −log10 of the molar value. Activity calls are given as the source filed them. The calls are words filed in the database; no cut-off is given here.

Experiments:
HeLa [1] = assay: Antioxidant activity in human HeLa cells assessed as decrease in cytosolic ROS at 500 uM measured after 24 hrs by CellROX orange reagent based flow cytometry; format: functional, cell-based
[2] = Effect on biochemical parameters of gross oxidative status in human HeLa cells at 500 uM measured after 24 hrs relative to control; format: ADME, cell-based
[3] = Cytotoxicity against human HeLa cells assessed as effect on cell viability at 500 uM measured after 24 hrs (Rvb (2% DMSO) = 93.5 +/- 3.19 %); format: cell-based; conditions: read-out: Activity
HeLa [4] = assay: Antioxidant activity in human HeLa cells assessed as increase in cellular thiol level at 500 uM measured after 24 hrs by Thiol-tracker violet molecular probe based assay; format: functional, cell-based
HeLa [5] = assay: Antioxidant activity in human HeLa cells assessed as increase in cellular thiol level at 500 uM measured after 24 hrs by Thiol-tracker violet molecular probe based assay relative to control; format: functional
[6] = Photochromic activity assessed as photoinduced isomerization by measuring increase in intensity of the absorption at 568 to 574 nm by UV spectra
[7] = Cytotoxicity against human HeLa cells assessed as effect on cell viability at 2 mM measured after 24 hrs (Rvb (8% DMSO) = 79.08 +/- 10.78 %); format: cell-based; conditions: read-out: Activity
HeLa [8] = assay: Antioxidant activity in human HeLa cells assessed as decrease in mitochondrial ROS at 500 uM measured after 24 hrs by CellROX reagent based flow cytometry relative to control; format: functional
[9] = Cytotoxicity against human HeLa cells assessed as decrease in cell viability at 2 mM measured after 24 hrs relative to 8% DMSO control; format: cell-based; conditions: read-out: INH
HeLa [10] = assay: Antioxidant activity in human HeLa cells assessed as decrease in nuclear ROS at 500 uM measured after 24 hrs by CellROX reagent based flow cytometry relative to control; format: functional
HeLa [11] = assay: Antioxidant activity in human HeLa cells assessed as increase in cellular thiol level at 2 mM measured after 24 hrs by Thiol-tracker violet molecular probe based assay relative to control; format: functional
[12] = Cytotoxicity against human HeLa cells assessed as decrease in cell viability at 500 uM measured after 24 hrs relative to 2% DMSO control; format: cell-based; conditions: read-out: INH
HeLa [13] = assay: Cytotoxicity against human HeLa cells assessed as decrease in cell viability measured after 24 hrs; format: cell-based
HeLa [14] = assay: Antioxidant activity in human HeLa cells assessed as decrease in mitochondrial ROS at 500 uM measured after 24 hrs by CellROX reagent based flow cytometry; format: functional, cell-based
HeLa [15] = assay: Antioxidant activity in human HeLa cells assessed as decrease in nuclear ROS at 500 uM measured after 24 hrs by CellROX reagent based flow cytometry; format: functional, cell-based
HeLa [16] = assay: Antioxidant activity in human HeLa cells assessed as decrease in cytosolic ROS at 500 uM measured after 24 hrs by CellROX orange reagent based flow cytometry relative to control; format: functional

SMILES: CN1c2ccccc2C(C)(C)C12C=Cc1c(ccc3ccc(OC(=O)CCCCC4CCSS4)cc13)O2 (stereo unspecified)
- inhibition (HeLa [1]): inactive
- Activity [2]: Non-Toxic
- viability at 24 h, 500 µM [3]: 95%
- Activity (HeLa [4]): Active
- Activity (HeLa [5]): 35%
- Activity [6]: inactive
- viability at 24 h, 2000 µM [7]: 73.4%

SMILES: O=C(O)CCCCC1CCSS1 (stereo not drawn) [LIPOIC ACID, ALPHA]
- inhibition at 500 µM (HeLa [8]): 31%
- viability at 24 h, 500 µM [3]: 94.7%
- cytotoxicity at 24 h, 2000 µM [9]: 32.7%
- inhibition at 500 µM (HeLa [10]): 31%
- Activity (HeLa [11]): 90%
- viability at 24 h, 2000 µM [7]: 51.8%

SMILES: CN1c2ccccc2C(C)(C)C12C=Cc1c(ccc3ccc(O)cc13)O2 (stereo unspecified)
- viability at 24 h, 500 µM [3]: 84.5%
- cytotoxicity at 24 h, 500 µM [12]: 11.9%
- Activity [6]: inactive
- viability at 24 h, 2000 µM [7]: 66.5%

SMILES: COc1ccc2c(c1)C(C)(C)C1(C=Cc3c(ccc4ccc(O)cc34)O1)N2C (stereo unspecified)
- viability at 24 h, 500 µM [3]: 4.19%
- cytotoxicity at 24 h, 2000 µM [9]: 93.7%
- pIC50 (HeLa [13]): 4.33
- cytotoxicity at 24 h, 500 µM [12]: 98.4%
- viability at 24 h, 2000 µM [7]: 5%

SMILES: COc1ccc2c(c1)C(C)(C)C1(C=Cc3c(ccc4ccc(OC(=O)CCCCC5CCSS5)cc34)O1)N2C (stereo unspecified)
- viability at 24 h, 500 µM [3]: 89.3%
- inhibition (HeLa [14]): inactive
- inhibition (HeLa [15]): inactive
- cytotoxicity at 24 h, 500 µM [12]: 8.3%
- Activity (HeLa [4]): Active
- inhibition at 500 µM (HeLa [16]): 78%
- Activity (HeLa [5]): 30%
- Activity [6]: Active
- viability at 24 h, 2000 µM [7]: 77.9%
